Measured values: US10005739B2, “Quinazolinone and isoquinolinone derivative” (CHUGAI SEIYAKU KABUSHIKI KAISHA, priority 2013, dated 2018)

molecular target: T1, DDR1 (Homo sapiens (Human), UniProt Q08345); test: Measurement of DDR1 enzyme inhibitory activity (phosphorylation of biotinylated peptide, time-resolved fluorescence); format: biochemical; conditions: human DDR1 enzyme, biotinylated peptide phosphorylation; read-out: DDR1 enzyme inhibition assay IC50
How it was run: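 Baculovirus-expressed human DDR1 phosphorylated a biotinylated peptide, and inhibition of that phosphorylation was measured. Phosphopeptide was detected by time-resolved fluorescence using europium cryptate–labelled anti-phosphotyrosine antibody with streptavidin-XL665.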

T1 sequence (Q08345 19-913): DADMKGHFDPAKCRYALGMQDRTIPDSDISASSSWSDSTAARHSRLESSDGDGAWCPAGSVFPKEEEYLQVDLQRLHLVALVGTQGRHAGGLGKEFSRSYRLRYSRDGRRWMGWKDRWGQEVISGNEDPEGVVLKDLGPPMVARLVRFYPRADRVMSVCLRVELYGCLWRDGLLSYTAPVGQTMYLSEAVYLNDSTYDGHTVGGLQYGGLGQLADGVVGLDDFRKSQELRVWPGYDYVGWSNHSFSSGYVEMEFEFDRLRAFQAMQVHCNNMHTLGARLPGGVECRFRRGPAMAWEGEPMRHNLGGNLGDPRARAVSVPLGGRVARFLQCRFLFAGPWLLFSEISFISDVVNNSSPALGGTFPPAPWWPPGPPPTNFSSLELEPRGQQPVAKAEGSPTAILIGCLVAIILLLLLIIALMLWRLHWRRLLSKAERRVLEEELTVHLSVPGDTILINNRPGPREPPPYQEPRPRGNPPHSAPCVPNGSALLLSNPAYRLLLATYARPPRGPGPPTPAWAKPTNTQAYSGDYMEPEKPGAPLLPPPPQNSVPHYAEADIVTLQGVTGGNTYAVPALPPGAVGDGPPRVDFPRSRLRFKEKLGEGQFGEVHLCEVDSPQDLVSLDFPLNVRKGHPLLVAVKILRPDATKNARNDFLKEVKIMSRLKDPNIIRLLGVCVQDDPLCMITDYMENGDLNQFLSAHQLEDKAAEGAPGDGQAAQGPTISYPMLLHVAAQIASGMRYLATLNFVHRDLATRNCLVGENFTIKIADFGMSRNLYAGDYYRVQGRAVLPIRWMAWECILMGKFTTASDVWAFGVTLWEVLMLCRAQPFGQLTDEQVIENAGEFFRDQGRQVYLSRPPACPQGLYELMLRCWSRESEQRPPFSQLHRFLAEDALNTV

Row | SMILES | IC50 [nM]
1 | CCS(=O)(=O)c1ccc(OC)cc1Nn1cnc2ccc(OC(F)(F)F)cc2c1=O [Compound C-28, 3-(2-Ethylsulfonyl-5-methoxyanilino)-6-(trifluoromethoxy)quinazolin-4-one] | 290
2 | C#Cc1ccc(S(=O)(=O)CC)c(Nn2cnc3c(Br)cc(C(F)(F)F)cc3c2=O)c1 [Compound C-37, 8-Bromo-3-(2-ethylsulfonyl-5-ethynylanilino)-6-(trifluoromethyl)quinazolin-4-one] | 240
3 | CCSc1ccc(Br)cc1Nn1cnc2c(Br)cc(C(F)(F)F)cc2c1=O [Compound C-25, 8-Bromo-3-(5-bromo-2-ethylsulfanylanilino)-6-(trifluoromethyl)quinazolin-4-one] | 180
4 | CCS(=O)(=O)c1ccc(Cl)cc1Nn1cnc2ccc(C(C)C)cc2c1=O [Compound A-63, 3-(5-Chloro-2-ethylsulfonylanilino)-6-propan-2-ylquinazolin-4-one] | 200
5 | CCS(=O)(=O)c1ccc(C#N)cc1Nn1cnc2c(Br)cc(C)cc2c1=O [Compound C-2, 3-[(8-Bromo-6-methyl-4-oxoquinazolin-3-yl)amino]-4-ethylsulfonylbenzonitrile] | 160
6 | CCSc1ccc(C#N)cc1Nn1cnc2ccc(OC(F)(F)F)cc2c1=O [Compound C-15, 4-Ethylsulfanyl-3-[[4-oxo-6-(trifluoromethoxy)quinazolin-3-yl]amino]benzonitrile] | 210
7 | CCSc1ccc(Cl)cc1Nn1cnc2cc(C)c(Br)cc2c1=O [Compound A-7, 6-Bromo-3-(5-chloro-2-ethylsulfanylanilino)-7-methylquinazolin-4-one] | 800
8 | CCSc1ccc(Cl)cc1Nn1cnc2ccc(OC(F)(F)F)cc2c1=O [Compound A-44, 3-(5-Chloro-2-ethylsulfanylanilino)-6-(trifluoromethoxy)quinazolin-4-one] | 290

Now from value to molecule:

Row | IC50 [nM] | SMILES
9 | 640 | CCSc1ccc(Cl)cc1Cn1cnc2c(Br)cc(C)cc2c1=O [Compound E-1, 8-Bromo-3-[(5-chloro-2-ethylsulfanylphenyl)methyl]-6-methylquinazolin-4-one]
10 | 590 | CCSc1ccc(Cl)cc1Cn1cnc2c(Br)cc(C(F)(F)F)cc2c1=O [Compound E-9, 8-Bromo-3-[(5-chloro-2-ethylsulfanylphenyl)methyl]-6-(trifluoromethyl)quinazolin-4-one]

same assay, conditions: read-out: DDR1 enzyme inhibition assay IC50

Row | IC50 [nM] | SMILES
11 | 90 | CCS(=O)(=O)c1ccc(Cl)cc1Cn1cnc2c(Br)c(CN3CCNCC3)c(Br)cc2c1=O [Compound L-11, 6,8-Dibromo-3-[(5-chloro-2-ethylsulfonylphenyl)methyl]-7-(piperazin-1-ylmethyl)quinazolin-4-one]

molecular target: T1, DDR1; test: Measurement of DDR1 binding activity (LanthaScreen Eu Kinase Binding Assay); conditions: not given
Protocol: 2. Measurement of DDR1 Binding Activity
DDR1 binding activity was measured using the LanthaScreen (Registered trademark) Eu Kinase Binding Assay (manufactured by Life Technologies Corporation). […] After one-hour reaction at room temperature, the fluorescence resonance energy transfer was measured.

Row | IC50 [nM] | SMILES
12 | 240 | CCS(=O)(=O)c1ccc(Cl)cc1Cn1cnc2c(Cl)c(CO)c(C(F)(F)F)cc2c1=O [Compound K-26, 8-Chloro-3-[(5-chloro-2-ethylsulfonylphenyl)methyl]-7-(hydroxymethyl)-6-(trifluoromethyl)quinazolin-4-one]

system: human endometrial cancer cell line MFE-280; test: Measurement of antitumor effect in MFE-280 cancer-bearing nude mice; format: in vivo; conditions: MFE-280 xenograft in BALB/c nude mice, 200 mg/kg orally once daily, 11th day

Row | SMILES | TGI after 11 days [%]
13 | CCS(=O)(=O)c1ccc(Cl)cc1Nn1cnc2ccc(OC(F)(F)F)cc2c1=O [Compound A-45, 3-(5-Chloro-2-ethylsulfonylanilino)-6-(trifluoromethoxy)quinazolin-4-one] | 72
